Assay results taken from patent US9109001B2, “3′,5′-cyclic phosphoramidate prodrugs for HCV infection” (priority 2012, dated 2015).
Read-outs that look alike come from different tables or passages of the source.

What was measured:
[1] = system: HCV genotype 1b replicon; assay: HCV Replicon Assay; format: cell-based
Protocol: Huh-7-derived cell line (Zluc) that harbors an HCV genotype 1b replicon and a luciferase reporter gene was grown in Dulbecco's Modified Eagle Medium (DMEM) supplemented with 10% fetal bovine serum, 2 mM GlutaMAX, 1% MEM nonessential amino acids, 100 IU/mL penicillin, 100 μg/mL streptomycin, and 0.5 mg/mL Geneticin® (G418). For dose response testing the cells were seeded in 96-well plates at 7.5×10^3 cells per well in a volume of 50 μL, and incubated at 37° C./5% CO2. Drug solutions were made up freshly in Huh-7 media as 2× stocks. Ten additional 5-fold dilutions were prepared from these stocks in DMEM without G418. At least three hours after Zluc cells were seeded, drug treatment was initiated by adding 50 μL of drug dilutions to the plates in duplicate. Final concentrations of drug ranged from 100 μM to […]. Cells were then incubated at 37° C./5% CO2. Alternatively, compounds were tested at two concentrations (1 μM and 10 μM). […] For this, media was removed from the plates via gentle tapping. Fifty microliters of ONE-glo luciferase assay reagent was added to each well. The plates were shaken gently for 3 min at room temperature and luminescence was measured on a Victor^3 V 1420 multilabel counter (Perkin Elmer) with a 1 second read time using a 700 nm cut-off filter. The EC50 values were calculated from dose response curves from the resulting best-fit equations determined by Microsoft Excel and XLfit 4.1 software. When screening at two fixed concentrations, the results were expressed as % inhibition at 1 μM and 10 μM.

[2] = system: fresh human hepatocytes; assay: Release of active metabolite in fresh human hepatocytes; format: in vitro ADME; settings: 10 μM
Protocol: Assay for the Release of Active Metabolite in Primary Hepatocytes: Plates of fresh human and mouse hepatocytes were obtained on ice. The medium was removed and replaced with hepatocyte culture medium (William's E supplemented with penicillin-streptomycin, 1% L-glutamine, 1% insulin-transferrin-selenium and 0.1 μM Dexamethasone (Invitrogen) or with Invitro GRO HI medium complemented with Torpedo antibiotics (Celsis)). Cells were left overnight in an incubator at 37° C. to acclimatize to culture and the medium.
Hepatocyte incubations were conducted at a final volume of 0.5 mL hepatocyte culture medium/well (0.8 million cells/well for human and 0.5 million cells/well for mouse; 12 well plate no overlay, collagen coat). Culture medium from overnight incubation of cells was removed and replaced with fresh medium, pre-warmed to 37° C., containing 10 μM of test compound from a stock solution in DMSO (final DMSO concentration was 0.1%). At each specific time point, incubation medium was removed and cell monolayers were carefully washed two times with ice-cold PBS. Following the last wash, all PBS was carefully removed and 1.0 mL of extraction solution (ice-cold 70% methanol/30% water) added. Cells were scraped off and suspended in the extraction solution, transferred to 2 mL polypropylene microfuge tubes and intracellular contents extracted overnight at −20° C.
After the overnight treatment the cellular extracts were prepared by centrifugation at 16,000×g for 10 min to remove cellular debris. The remaining sample was then dried using a refrigerated centrivap concentrator. Dry extracts were reconstituted in 1000 μL of HPLC-grade water and centrifuged at 16,000×g for 10 min. Aliquots (100 μL each) of the supernatant were transferred into a 96 well plate and internal standard (4 ng/mL final concentration) was added as the internal standard (IS) for LC-MS/MS analysis.
The incubation time points were 6, 24 and 48 hours for human hepatocytes and 1, 4, 8, 12 and 24 hours for mouse hepatocytes.

[3] = Stability in human liver microsomes; format: in vitro ADME; settings: 10 μM, 1.0 mg/mL protein, NADPH, 60 min; percent unchanged
Protocol: Stability in Liver and Intestinal Subcellular Fractions: Stability of test compounds were determined in subcellular fractions (microsomes and S9) of human liver and intestine in duplicate for each matrix. Pooled liver and intestinal microsomal, intestinal and liver S9 proteins (1.0 mg/mL), suspended in incubation buffer (100 mM potassium phosphate, pH 7.4, 5 mM MgCl2, and 0.1 mM EDTA), were preincubated for 5 min at 37° C. with 10 μM of a test compound from a 10 mM stock solution in DMSO (final DMSO concentration was 0.1%); the reaction was initiated by the addition of NADPH (3 mM final concentration). At specific times (0 and 60 min), 0.1 mL samples were taken and the reaction terminated by the addition of 4 volumes of stop solution (acetonitrile with 500 ng/mL carbutamide as an internal standard). The samples were vortexed for 30 sec and then centrifuged at 16,000 g for 10 min. 100 μL of supernatants were transferred to 96 deep-well plates preloaded with 100 μL distilled water and analyzed after mixing by LC-MS/MS. The MS peak area ratio of the test compound versus the internal standard was calculated and percent unchanged test compound over 60 minutes was calculated using this ratio.

[4] = system: Zluc cells; assay: Cytotoxicity evaluation (CellTiter-Blue Cell Viability Assay); format: cell-based, human; settings: read-out: HCV Replicon CC50
[5] = Stability in fresh human whole blood; format: in vitro ADME; settings: 0.5 μM, percent unchanged test compound
Protocol: (§1) Stability in Fresh Whole Blood: Stability of test compounds were determined in fresh human whole blood with K2EDTA as the anticoagulant (stored refrigerated at 2-8° C. and used within 7 days of receipt). The experiment was conducted with three replicates for each time point. Whole blood, pre-incubated at 37° C. for 10-15 minutes, was fortified with a solution of test compound for a final concentration of 0.5 μM and mixed for 30 sec. At intervals (0, 0.5, 1 and 2 hr), three 50-μL aliquots were combined with 200 μL (each) of an ice-cold solution of the internal standard (carbutamide 500 ng/mL in acetonitrile). The samples were vortexed for 30 sec and then centrifuged at 16,100 g for 5 min. The supernatant was analyzed by LC-MS/MS. The MS peak area ratio of the test compound versus the internal standard was calculated and percent unchanged test compound was calculated for each time point using this ratio.

[6] = Stability in mouse blood; format: in vitro ADME; settings: on ice, percent unchanged test compound
Protocol: as §1
The stability in mouse blood was determined on ice at 0, 0.5 and 1 hr as above.

[7] = Stability in simulated intestinal fluid; format: in vitro ADME; settings: 100 μM, 2 hours at 37° C.; percent of peak area at time zero
Protocol: Stability in Simulated Gastric and Intestinal Fluids: Simulated gastric and intestinal fluids containing pepsin and pancreatin respectively were prepared according to the U.S. Pharmacopoeia USP291 procedure (www.pharmacopeia.cn/v29240/usp29nf24s0_ris1s126.html). Test compound (final concentration 100 μM) was incubated in duplicate in the appropriate fluid for 2 hours at 37° C. The samples were quenched with 200 μl cold acetonitrile, vortexed for 30 seconds and then centrifuged at 16,100 g for 10 min. The supernatants were analyzed by HPLC on a C-18 column with UV detection at 252 nm. The time 0 samples were prepared by adding SGF or SIF fluid to the quenching solvent followed by the test compound. Stability of the compound was determined by peak area the test compound after incubation and calculated as percent of the peak area observed at time zero.

[8] = target: T1, carboxylesterase 1 (CES1) (Homo sapiens, UniProt P23141)
T1 sequence (P23141 18-567): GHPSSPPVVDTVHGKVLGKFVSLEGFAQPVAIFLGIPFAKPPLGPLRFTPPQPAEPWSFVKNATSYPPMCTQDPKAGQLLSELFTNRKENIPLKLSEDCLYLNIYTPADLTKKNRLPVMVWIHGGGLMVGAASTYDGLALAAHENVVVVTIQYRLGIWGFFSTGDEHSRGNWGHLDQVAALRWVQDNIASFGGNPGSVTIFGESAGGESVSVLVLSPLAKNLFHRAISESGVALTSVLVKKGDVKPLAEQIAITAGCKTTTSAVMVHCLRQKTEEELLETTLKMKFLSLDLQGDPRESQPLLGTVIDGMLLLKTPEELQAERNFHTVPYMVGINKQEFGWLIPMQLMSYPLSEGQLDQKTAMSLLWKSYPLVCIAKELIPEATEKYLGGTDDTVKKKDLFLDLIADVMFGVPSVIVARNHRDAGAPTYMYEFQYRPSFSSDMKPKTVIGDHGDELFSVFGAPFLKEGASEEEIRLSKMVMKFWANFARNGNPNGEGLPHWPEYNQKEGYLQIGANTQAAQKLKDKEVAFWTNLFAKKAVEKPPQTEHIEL
Protocol: (§2) CES1 assay was performed at 37° C. in the reaction mixture containing 50 mM Tris/HCl buffer pH 7.5 and 100 μM of the compound. Reaction was started by addition of the CES1 to the final concentration 0.01 μg/mL. 100 μL aliquots were taken after 0.5 min, 3 hrs and 21 hrs of the incubation and the reaction was stopped by mixing with 100 μl of the ice-cold methanol prior to HPLC analysis.
(§3) Samples were analyzed by HPLC using 5 μC-18, 4.6×250 mm Phenomenex® Columbus column (Phenomenex USA, CA). The mobile phase consisted of buffer A (25 mM potassium phosphate with 5 mM tetrabutylammonium dihydrogen phosphate pH 6.3) and buffer B (100% methanol).

[9] = system: Huh-7 cells; assay: Release of active metabolite in Huh-7 cells; format: in vitro ADME, human; settings: Table 6, AUC0-72
Protocol: Assay for the Release of Active Metabolite in Huh-7 Cells. Huh-7 cells were plated in 1 mL culture medium (DMEM, containing glucose, L-glutamine and sodium pyruvate, 10% FBS, 100 IU/mL penicillin, 100 μg/mL streptomycin, 2 mM GlutaMAX, 1% MEM non-essential amino acids) at the concentration 0.8, 0.4 and 0.2 million cells per well on 6 well plates for 24, 48 and 72 hr treatment, respectively. Plated cells were incubated overnight at 37° C. in an incubator.
The following morning test compound was diluted to 20 μM from a stock solution in DMSO in fresh culture medium pre-warmed to 37° C. and 1 mL of the solution/well was added to cells. A final medium volume per well was 2.0 mL, test compound concentration in well was 10 μM and final DMSO concentration was 0.1%.
After 24, 48 or 72 hr, the medium was carefully removed and cell monolayers were washed twice with 2 mL ice-cold PBS per well. Following the last wash, all PBS was carefully removed and 1.0 mL of extraction solution (ice-cold 70% methanol) added. The plate was tightly covered with Parafilm, plastic plate cover and Parafilm again and an intracellular content was extracted at −20° C. for 24 hr.
After 24 hr extracts were transferred into polypropylene microfuge tubes and dry on a refrigerated centrivap concentrator. Dry residues were reconstituted in 250 μL of HPLC-grade water and centrifuged at 16,000×g for 10 min. Aliquots (100 μL each) of the supernatants were transferred into a 96 well plate and internal standard (4 ng/mL final concentration) was added as the internal standard (IS) for LC-MS/MS analysis.

[10] = target: T2, cathepsin A (CatA) (Homo sapiens, UniProt P10619); assay: CatA hydrolysis assay; format: in vitro ADME; settings: for CatA hydrolysis @ 18 h: 100 μM compound, 37° C.
T2 sequence (P10619 29-326 limits assumed): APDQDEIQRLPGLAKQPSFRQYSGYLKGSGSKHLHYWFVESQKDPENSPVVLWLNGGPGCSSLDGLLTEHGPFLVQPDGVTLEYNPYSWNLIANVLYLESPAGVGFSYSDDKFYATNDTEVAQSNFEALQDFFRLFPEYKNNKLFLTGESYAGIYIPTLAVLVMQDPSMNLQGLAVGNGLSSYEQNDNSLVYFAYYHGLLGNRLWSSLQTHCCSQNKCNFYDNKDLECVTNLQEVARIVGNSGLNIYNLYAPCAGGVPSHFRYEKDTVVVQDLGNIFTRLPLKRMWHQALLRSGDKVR
T2 sequence (P10619 327-480 limits assumed): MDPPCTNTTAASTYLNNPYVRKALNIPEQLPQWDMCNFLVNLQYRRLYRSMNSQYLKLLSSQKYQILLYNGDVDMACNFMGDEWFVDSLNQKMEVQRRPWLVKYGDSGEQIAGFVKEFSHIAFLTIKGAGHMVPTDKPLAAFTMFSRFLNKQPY
Protocol: CatA, cathepsin L (CatL) and CES1 were purchased from R & D Systems (Minneapolis, Minn.). Prior to the enzymatic hydrolysis reactions, CatA was activated according to the manufacturer's instruction. Briefly, CatA (0.05 μg/μL) was incubated with CatL (0.005 μg/μL) for 30 min at 37° C. in 25 mM MES pH 6.0 containing 5 mM DTT. The reaction was stopped by addition of the CatL specific inhibitor E64 (10 μM).
The CatA assay was performed at 37° C. The reaction mixture contained 25 mM MES buffer pH 6.0, 100 mM NaCl, 4 mM DTT and 100 μM of the compound. The reaction was started by addition of the activated CatA enzyme to a final concentration of 0.005 μg/μL. One hundred-μL aliquots were taken after 0.5 min, 3 hrs and 18 hrs of incubation. Reactions were stopped by mixing the sample with an equal volume of ice-cold methanol, and were loaded on a HPLC for analysis.
as §3

[11] = Liver TP (Table 6); format: in vivo; settings: liver triphosphate, species and dose not stated
[12] = target: T1, carboxylesterase 1 (CES1); assay: CES1 hydrolysis assay; settings: 100 μM compound, 37° C.
Protocol: as §2, §3

Row | Compound | EC50 ([1]; Zluc (Huh-7-derived) cells, HCV genotype 1b replicon, luciferase reporter, 72 hours, read-out: HCV Replicon EC50) [nM] | FHH TP AUC (pmol · hr/mill cells) [2] [pmol · hr/mill cells] | Stability HLM (1 hr) [3] [%] | CC50 [4] [nM] | Stability WB_Human (37° C.; 2 hr) [5] [%] | Stability WB_Mouse (ice; 1 hr) [6] [%] | Stability SIF [7] [%] | EC50 ([1]; Table 6, genotype 1b HCV replicon-bearing Huh-7 cells, read-out: EC50) [nM] | Hydrolysis by CES1 (in words) [8] | Huh-7 pmol*hr/10^6 cells AUC0-72 [9] [pmol*hr/10^6 cells] | CatA hydrolysis @ 18 h [10] [% @] | Liver TP [11] [pmol·h/g] | EC50 ([1]; Hepatitis C virus, Huh-7, Table 6, genotype 1b HCV replicon-bearing Huh-7 cells, read-out: EC50) [nM] | CES1 hydrolysis 3 h ([12]; 3 h) | CES1 hydrolysis 21 h ([12]; 21 h) [%/21 h] | CatA cleavage efficiency versus RP diastereoisomer ([10]; GS-7977 (SP) relative to PSI-7976 (RP)) [times]
1 | CCOc1nc(N)nc2c1ncn2[C@@H]1O[C@@H]2COP(=O)(NCCC(=O)OC(C)C)O[C@H]2[C@@]1(C)F (single isomer, unassigned) [Compound 2 Diastereomer 2] | 250 to 1000 | 336 | 5.7 | > 50000 | 91 | 60 | 91 | – | – | – | – | – | – | – | – | –
2 | CC(C)OC(=O)[C@H](C)N[P@@](=O)(OC[C@H]1O[C@@H](n2ccc(=O)[nH]c2=O)[C@](C)(F)[C@@H]1O)Oc1ccccc1 [PSI-7976] | – | – | – | – | – | – | – | 2080 | preferentially hydrolyzed | 6527 | 10 | 310 | – | – | – | –
3 | CC(C)OC(=O)[C@H](C)N[P@](=O)(OC[C@H]1O[C@@H](n2ccc(=O)[nH]c2=O)[C@](C)(F)[C@@H]1O)Oc1ccccc1 (single isomer, unassigned) [GS-7977] | – | – | – | – | – | – | – | – | – | 63555 | 100 | – | 250 | 12%/3 h; | 15 | 10
